Test results: patent US20260317344A1, “EGFR INHIBITORS FOR TREATING DISEASE” (BLOSSOMHILL THERAPEUTICS, INC., priority 2023, published 2026)

Experiments:
[1] = target: EGFR (L858R) (Homo sapiens, UniProt P00533, L858R); assay: HotSpot radiometric kinase assay, inhibition of EGFR L858R mutant; type: biochemical; details: 33P ATP, room temperature, 120 m
Description: (§1) Biochemical Assays for inhibition of wild-type and mutant EGFRs
(§2) Briefly, specific kinase/substrate pairs along with required cofactors were prepared in reaction buffer; 20 mM HEPES pH 7.5, 10 mM […], 1 mM EGTA, 0.02% Brij35, 0.02 mg/ml BSA, 0.1 mM Na3VO4, 2 mM DTT, 1% DMSO. Compounds were delivered into the reaction, followed ~20 minutes later by addition of a mixture of ATP (Sigma, St. Louis MO) and ^33P ATP (Perkin Elmer, Waltham MA) to a final concentration of […]. Reactions were carried out at room temperature for 120 m, followed by spotting of the reactions onto P81 ion exchange filter paper (Whatman Inc., Piscataway, NJ). Unbound phosphate was removed by extensive washing of filters in 0.75% phosphoric acid. […] IC50 values and curve fits were obtained using Prism (GraphPad Software).

[2] = target: EGFR (L858R/T790M) (Homo sapiens, UniProt P00533, L858R/T790M); assay: HotSpot radiometric kinase assay, inhibition of EGFR L858R/T790M mutant; type: biochemical; details: 33P ATP, room temperature, 120 m
Description: as §1, §2

[3] = target: EGFR (L858R/T790M/C797S) (Homo sapiens, UniProt P00533, C797S/L858R/T790M); assay: HotSpot radiometric kinase assay, inhibition of EGFR L858R/T790M/C797S mutant; type: biochemical; details: 33P ATP, room temperature, 120 m
EGFR (L858R/T790M/C797S), sequence (P00533 25-1210 T790M/C797S/L858R): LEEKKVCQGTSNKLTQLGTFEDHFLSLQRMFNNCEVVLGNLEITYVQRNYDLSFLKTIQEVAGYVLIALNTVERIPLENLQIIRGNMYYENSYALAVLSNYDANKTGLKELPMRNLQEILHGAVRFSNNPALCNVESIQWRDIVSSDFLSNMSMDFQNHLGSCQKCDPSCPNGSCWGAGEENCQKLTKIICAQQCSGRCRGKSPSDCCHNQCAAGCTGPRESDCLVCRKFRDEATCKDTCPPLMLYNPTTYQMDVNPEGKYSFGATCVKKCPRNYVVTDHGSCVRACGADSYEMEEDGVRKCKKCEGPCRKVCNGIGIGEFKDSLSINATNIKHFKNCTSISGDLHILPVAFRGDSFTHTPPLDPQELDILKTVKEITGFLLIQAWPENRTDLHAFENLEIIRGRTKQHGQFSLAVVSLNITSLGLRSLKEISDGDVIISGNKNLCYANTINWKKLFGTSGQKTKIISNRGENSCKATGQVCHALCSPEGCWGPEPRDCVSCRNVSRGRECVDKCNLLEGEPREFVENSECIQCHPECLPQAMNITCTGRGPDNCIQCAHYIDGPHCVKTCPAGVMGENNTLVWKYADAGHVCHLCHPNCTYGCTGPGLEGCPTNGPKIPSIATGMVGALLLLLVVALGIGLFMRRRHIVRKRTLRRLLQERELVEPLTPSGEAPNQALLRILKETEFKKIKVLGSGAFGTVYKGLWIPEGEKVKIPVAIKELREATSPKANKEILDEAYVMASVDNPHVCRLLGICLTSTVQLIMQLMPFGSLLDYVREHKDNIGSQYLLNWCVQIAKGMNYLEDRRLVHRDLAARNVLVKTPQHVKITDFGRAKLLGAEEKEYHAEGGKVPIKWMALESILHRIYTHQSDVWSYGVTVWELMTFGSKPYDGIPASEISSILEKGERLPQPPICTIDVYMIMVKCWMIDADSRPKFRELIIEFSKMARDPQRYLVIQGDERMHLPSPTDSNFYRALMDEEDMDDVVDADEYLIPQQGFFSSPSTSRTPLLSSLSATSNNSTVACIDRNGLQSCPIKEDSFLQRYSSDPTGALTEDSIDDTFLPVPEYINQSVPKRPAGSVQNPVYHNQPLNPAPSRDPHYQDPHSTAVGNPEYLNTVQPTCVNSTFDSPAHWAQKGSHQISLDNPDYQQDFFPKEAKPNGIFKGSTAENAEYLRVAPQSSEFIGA
Summary of the method: (§3)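 Kinase/substrate pairs in 20 mM HEPES pH 7.5, 10 mM MgCl2, 1 mM EGTA, 0.02% Brij35, 0.02 mg/ml BSA, 0.1 mM Na3VO4, 2 mM DTT, 1% DMSO, preincubated ~20 min with compound. Reaction started with ATP/33P-ATP ([…]), run 120 min at room temperature; phosphorylation read by P81 filter binding, IC50 from curve fits.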

[4] = target: EGFR (D746-750) (Homo sapiens, UniProt P00533, DEL746-750); assay: HotSpot radiometric kinase assay, inhibition of EGFR 746-750 mutant; type: biochemical; details: 33P ATP, room temperature, 120 m
Summary of the method: as §3

[5] = target: EGFR (D746-750/C797S) (Homo sapiens, UniProt P00533, C797S/DEL746-750); assay: HotSpot radiometric kinase assay, inhibition of EGFR 746-750/C797S mutant; type: biochemical; details: 33P ATP, room temperature, 120 m
EGFR (D746-750/C797S), sequence (P00533 with tags, fused parts or gaps DEL746-750/C797S): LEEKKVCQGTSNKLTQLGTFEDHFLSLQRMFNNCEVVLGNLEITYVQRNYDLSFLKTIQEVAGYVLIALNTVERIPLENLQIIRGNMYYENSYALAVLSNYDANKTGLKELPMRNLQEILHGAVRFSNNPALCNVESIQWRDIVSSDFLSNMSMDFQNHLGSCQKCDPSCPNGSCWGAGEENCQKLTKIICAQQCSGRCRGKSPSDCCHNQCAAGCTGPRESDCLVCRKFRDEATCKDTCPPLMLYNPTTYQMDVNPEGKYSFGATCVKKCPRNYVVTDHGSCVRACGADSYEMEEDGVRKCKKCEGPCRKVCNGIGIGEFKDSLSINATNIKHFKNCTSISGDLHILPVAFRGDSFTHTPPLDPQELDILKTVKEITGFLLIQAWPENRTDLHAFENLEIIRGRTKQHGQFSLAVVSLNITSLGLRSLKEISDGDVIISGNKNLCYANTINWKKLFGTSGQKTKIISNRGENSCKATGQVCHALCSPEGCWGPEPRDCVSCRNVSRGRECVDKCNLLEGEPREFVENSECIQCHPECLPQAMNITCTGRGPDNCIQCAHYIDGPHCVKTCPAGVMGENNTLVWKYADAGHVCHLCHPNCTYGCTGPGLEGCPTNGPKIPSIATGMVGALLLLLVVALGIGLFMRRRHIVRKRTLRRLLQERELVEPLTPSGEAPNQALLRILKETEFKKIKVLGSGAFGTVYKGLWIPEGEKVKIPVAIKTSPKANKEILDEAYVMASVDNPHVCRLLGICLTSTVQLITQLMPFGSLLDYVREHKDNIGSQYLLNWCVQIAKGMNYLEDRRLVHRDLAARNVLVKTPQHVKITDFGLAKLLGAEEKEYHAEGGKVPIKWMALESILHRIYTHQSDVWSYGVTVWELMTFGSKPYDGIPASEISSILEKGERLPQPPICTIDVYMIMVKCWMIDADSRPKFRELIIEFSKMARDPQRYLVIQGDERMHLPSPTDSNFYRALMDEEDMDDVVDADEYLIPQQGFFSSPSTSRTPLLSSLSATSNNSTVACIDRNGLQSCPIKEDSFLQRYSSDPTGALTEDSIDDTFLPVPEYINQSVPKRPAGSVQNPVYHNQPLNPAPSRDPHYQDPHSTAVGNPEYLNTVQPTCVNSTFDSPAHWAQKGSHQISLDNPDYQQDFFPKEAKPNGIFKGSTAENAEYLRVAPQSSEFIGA
Summary of the method: as §3

[6] = target: EGFR (D770_N771insNPG) (Homo sapiens, UniProt P00533, INS770NPG); assay: HotSpot radiometric kinase assay, inhibition of EGFR (D770_N771insNPG) mutant; type: biochemical; details: 33P ATP, room temperature, 120 m
Summary of the method: as §3

[7] = target: EGFR WT (Homo sapiens, UniProt P00533); assay: HotSpot radiometric kinase assay, inhibition of EGFR WT; type: biochemical; details: 33P ATP, room temperature, 120 m
Description: as §1, §2

[8] = target: T1, pEGFR, PC-9 cells (d746-750 EGFR) (Homo sapiens, UniProt P00533, DEL746-750); assay: Cellular EGFR phosphorylation assay (LANCE Ultra TR-FRET) in PC-9 cells; type: cell-based; details: 4 hours at 37° C., read-out: PC-9 pEGFR IC50
T1 construct: pEGFR (Tyr1068) TR-FRET
Summary of the method: (§4)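 IC50 values come from TR-FRET detection of EGFR phosphorylated at Tyr1068 in whole-cell lysates. Compound exposure lasts 4 h at 37 °C across nine 3-fold concentrations, and the wildtype-amplified A431 line receives 40 ng/mL EGF during the last 10 minutes.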

[9] = target: T2, pEGFR, NCI-H1975 cells (L858R/T790M EGFR) (Homo sapiens, UniProt P00533, L858R/T790M); assay: Cellular EGFR phosphorylation assay (LANCE Ultra TR-FRET) in NCI-H1975 cells; type: cell-based; details: 4 hours at 37° C., read-out: H1975 pEGFR IC50
T2 construct: pEGFR (Tyr1068) TR-FRET
T2 sequence (P00533 25-1210 T790M/L858R): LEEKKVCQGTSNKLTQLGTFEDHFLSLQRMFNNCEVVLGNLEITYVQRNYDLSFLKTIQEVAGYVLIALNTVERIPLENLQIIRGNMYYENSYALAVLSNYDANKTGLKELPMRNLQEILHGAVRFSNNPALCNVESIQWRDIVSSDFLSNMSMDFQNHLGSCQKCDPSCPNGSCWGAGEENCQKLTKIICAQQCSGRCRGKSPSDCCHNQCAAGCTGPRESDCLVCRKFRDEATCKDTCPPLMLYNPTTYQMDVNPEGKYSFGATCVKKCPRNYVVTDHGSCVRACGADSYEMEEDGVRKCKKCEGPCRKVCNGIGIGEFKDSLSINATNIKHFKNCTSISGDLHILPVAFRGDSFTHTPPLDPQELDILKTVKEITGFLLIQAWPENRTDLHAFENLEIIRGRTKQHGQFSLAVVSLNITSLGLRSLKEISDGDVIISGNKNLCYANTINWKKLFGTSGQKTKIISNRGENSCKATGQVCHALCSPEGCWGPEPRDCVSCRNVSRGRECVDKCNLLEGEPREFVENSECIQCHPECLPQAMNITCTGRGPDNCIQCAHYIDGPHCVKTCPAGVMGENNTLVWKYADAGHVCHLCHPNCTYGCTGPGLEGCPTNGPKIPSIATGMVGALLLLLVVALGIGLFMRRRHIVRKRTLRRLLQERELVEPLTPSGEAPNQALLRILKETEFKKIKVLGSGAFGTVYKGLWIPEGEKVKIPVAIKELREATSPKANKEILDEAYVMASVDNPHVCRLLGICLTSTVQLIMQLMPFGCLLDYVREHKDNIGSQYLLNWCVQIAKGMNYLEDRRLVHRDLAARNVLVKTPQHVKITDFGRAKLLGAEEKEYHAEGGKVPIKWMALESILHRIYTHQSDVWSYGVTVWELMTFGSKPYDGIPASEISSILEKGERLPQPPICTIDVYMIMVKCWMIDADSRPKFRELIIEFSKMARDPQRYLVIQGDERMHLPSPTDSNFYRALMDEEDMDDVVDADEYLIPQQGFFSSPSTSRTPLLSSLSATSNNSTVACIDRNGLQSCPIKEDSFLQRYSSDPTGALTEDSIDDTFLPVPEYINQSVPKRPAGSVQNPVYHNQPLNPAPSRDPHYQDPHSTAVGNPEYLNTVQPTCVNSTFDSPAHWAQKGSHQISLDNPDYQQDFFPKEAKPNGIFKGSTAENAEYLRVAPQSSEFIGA
Summary of the method: as §4

[10] = target: T3, pEGFR, A431 cells (wildtype EGFR) (Homo sapiens, UniProt P00533); assay: Cellular EGFR phosphorylation assay (LANCE Ultra TR-FRET) in A431 cells; type: cell-based; details: 4 hours at 37° C., 40 ng/mL EGF for the final 10 minutes, read-out: A431 pEGFR IC50
T3 construct: pEGFR (Tyr1068) TR-FRET
Summary of the method: as §4

[11] = test system: PC-9 cells; assay: 5-Day CellTiter Glo (CTG) cell proliferation assay, PC-9; type: cell-based; details: Homo sapiens; PC-9 cells (d746-750 EGFR), 5-day CTG proliferation, 120 hours; read-out: PC-9 IC50
Summary of the method: (§5)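 Luminescent ATP signal (CellTiter-Glo 2.0) after 120 hours of compound exposure gave IC50 values. PC-9 and HCC827 harbour EGFR d746-750; NCI-H1975 harbours L858R/T790M.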

[12] = test system: NCI-H1975 cells; assay: 5-Day CellTiter Glo (CTG) cell proliferation assay, NCI-H1975; type: cell-based; details: Homo sapiens; NCI-H1975 cells (L858R/T790M EGFR), 5-day CTG proliferation, 120 hours; read-out: H1975 IC50
Summary of the method: as §5

[13] = test system: HCC827 cells; assay: 5-Day CellTiter Glo (CTG) cell proliferation assay, HCC827; type: cell-based; details: Homo sapiens; HCC827 cells (d746-750 EGFR), 5-day CTG proliferation, 120 hours; read-out: HCC827 IC50
Summary of the method: as §5

[14] = test system: BaF3 cells with engineered EGFR L858R/T790M/C797S; assay: 3-Day CellTiter Glo (CTG) cell proliferation assay, BaF3 EGFR L858R/T790M/C797S; type: cell-based; details: Mus musculus, 3-day CTG proliferation, 72 hours
Summary of the method: (§6)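 Growth inhibition in transgene-bearing BaF3 lines was scored after three days of compound treatment by CellTiter-Glo 2.0 ATP luminescence, yielding IC50 values.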

[15] = test system: BaF3 cells with engineered EGFR L858R/C797S; assay: 3-Day CellTiter Glo (CTG) cell proliferation assay, BaF3 EGFR L858R/C797S; type: cell-based; details: Mus musculus, 3-day CTG proliferation, 72 hours
Summary of the method: as §6

[16] = test system: BaF3 cells with engineered EGFR d746-750/T790M; assay: 3-Day CellTiter Glo (CTG) cell proliferation assay, BaF3 EGFR d746-750/T790M; type: cell-based; details: Mus musculus; BaF3 EGFR d746-750/T790M cells, 3-day CTG proliferation, 72 hours
Summary of the method: as §6

EGFR (L858R), sequence (P00533 25-1210 L858R): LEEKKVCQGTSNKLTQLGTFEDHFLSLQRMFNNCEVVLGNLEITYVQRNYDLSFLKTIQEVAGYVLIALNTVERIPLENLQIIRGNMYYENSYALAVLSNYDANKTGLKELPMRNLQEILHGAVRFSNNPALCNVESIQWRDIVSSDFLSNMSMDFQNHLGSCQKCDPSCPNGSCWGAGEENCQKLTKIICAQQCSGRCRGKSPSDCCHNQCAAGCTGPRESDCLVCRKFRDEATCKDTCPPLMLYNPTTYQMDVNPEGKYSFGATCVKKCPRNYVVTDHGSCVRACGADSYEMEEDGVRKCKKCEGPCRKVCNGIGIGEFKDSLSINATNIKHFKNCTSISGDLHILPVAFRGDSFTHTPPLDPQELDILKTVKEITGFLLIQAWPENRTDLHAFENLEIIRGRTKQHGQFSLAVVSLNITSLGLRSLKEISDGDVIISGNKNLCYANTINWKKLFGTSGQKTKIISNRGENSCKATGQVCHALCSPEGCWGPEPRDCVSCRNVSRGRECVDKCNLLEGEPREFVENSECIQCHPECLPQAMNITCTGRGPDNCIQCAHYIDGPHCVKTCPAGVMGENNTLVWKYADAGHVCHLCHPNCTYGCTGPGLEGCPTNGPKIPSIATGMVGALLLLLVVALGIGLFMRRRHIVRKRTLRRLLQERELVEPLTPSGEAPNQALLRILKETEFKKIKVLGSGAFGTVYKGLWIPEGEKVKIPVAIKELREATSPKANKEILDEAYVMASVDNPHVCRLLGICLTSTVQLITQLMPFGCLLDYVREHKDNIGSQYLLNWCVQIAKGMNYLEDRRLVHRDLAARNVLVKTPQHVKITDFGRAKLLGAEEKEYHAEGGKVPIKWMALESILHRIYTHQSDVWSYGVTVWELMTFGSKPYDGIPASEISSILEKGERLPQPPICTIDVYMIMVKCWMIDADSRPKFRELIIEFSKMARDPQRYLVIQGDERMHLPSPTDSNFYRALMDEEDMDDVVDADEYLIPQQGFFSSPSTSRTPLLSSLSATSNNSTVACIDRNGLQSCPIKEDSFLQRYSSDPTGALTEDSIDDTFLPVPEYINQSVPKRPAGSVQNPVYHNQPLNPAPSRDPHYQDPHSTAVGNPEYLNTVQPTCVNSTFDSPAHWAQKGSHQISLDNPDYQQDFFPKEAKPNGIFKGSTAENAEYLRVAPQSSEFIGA

SMILES	IC50 [1] [pM]	IC50 [2] [pM]	IC50 [3] [pM]	IC50 [4] [pM]	IC50 [5] [pM]	IC50 [6] [pM]	IC50 [7] [pM]	IC50 [8] [pM]	IC50 [9] [pM]	IC50 [10] [pM]	IC50 [11] [pM]	IC50 [12] [pM]	IC50 [13] [pM]	IC50 [14] [pM]	IC50 [15] [pM]	IC50 [16] [pM]
CCOc1nn([C@@H](C)CO)c2c1/C=C/c1n[nH]c3cnc(cc13)-c1c(C)nn(C)c1O[C@@H](C)CN(C)C2 [Ex. 27, (2S)-2-[(10S,17E)-16-ethoxy-6,8,10,12-tetramethyl-2,8,10,11,12,13-hexahydro-14H-5,3-(azenometheno)tripyrazolo[3,4-f:3′,4′-j:4″,3″-n][1,4]oxazacyclopentadecin-14-yl]propan-1-ol]	890	510	450	280	900	270	310	910	1850	12500	450	970	260	730	70	550
CCOc1nn(CCO)c2c1/C=C/c1n[nH]c3c(C)nc(cc13)-c1c(C)nn(C)c1O[C@@H](C)CN(C)C2 [Ex. 47, 2-[(10S,17E)-16-ethoxy-6,8,10,12,20-pentamethyl-2,8,10,11,12,13-hexahydro-14H-5,3-(azenometheno)tripyrazolo[3,4-f:3′,4′-j:4″,3″-n][1,4]oxazacyclopentadecin-14-yl]ethan-1-ol]	200	320	280	430	270	200	180	1130	1060	15200	1800	1770	570	620	70	1500
Cc1nn(C)c2c1-c1cc3c(n[nH]c3cn1)/C=C/c1c(OCC#N)nn(CCO)c1CN(C)C[C@H](C)O2 [Ex. 22, {[(10S,17E)-14-(2-hydroxyethyl)-6,8,10,12-tetramethyl-2,10,11,12,13,14-hexahydro-8H-5,3-(azenometheno)tripyrazolo[3,4-f:3′,4′-j:4″,3″-n][1,4]oxazacyclopentadecin-16-yl]oxy}acetonitrile]	1450	730	520	300	1270	280	410	5670	6810	67500	7120	19800	870	4390	560	5770
CCOc1nn([C@@H](C)CO)c2c1/C=C/c1n[nH]c3cnc(cc13)-c1c(C)nn(C)c1O[C@H](C)CN(CC)C2 [Ex. 24, (2S)-2-[(10R,17E)-16-ethoxy-12-ethyl-6,8,10-trimethyl-2,8,10,11,12,13-hexahydro-14H-5,3-(azenometheno)tripyrazolo[3,4-f:3′,4′-j:4″,3″-n][1,4]oxazacyclopentadecin-14-yl]propan-1-ol]	1680	940	570	510	1080	620	500	1500	1600	22400	470	1260	270	780	110	410

Continued, values first:

IC50 [1] [pM]	IC50 [2] [pM]	IC50 [3] [pM]	IC50 [4] [pM]	IC50 [5] [pM]	IC50 [6] [pM]	IC50 [7] [pM]	IC50 [8] [pM]	IC50 [9] [pM]	IC50 [10] [pM]	IC50 [11] [pM]	IC50 [12] [pM]	IC50 [13] [pM]	IC50 [14] [pM]	IC50 [15] [pM]	IC50 [16] [pM]	SMILES
360	500	250	460	560	180	90	1120	1760	1420	470	1070	310	710	70	610	CCOc1nn([C@@H](C)CO)c2c1/C=C/c1n[nH]c3cnc(cc13)-c1c(C)nn(C)c1O[C@@H](C)CN(C1CC1)C2 [Ex. 110, (2S)-2-[(10S,17E)-12-cyclopropyl-16-ethoxy-6,8,10-trimethyl-2,8,10,11,12,13-hexahydro-14H-5,3-(azenometheno)tripyrazolo[3,4-f:3′,4′-j:4″,3″-n][1,4]oxazacyclopentadecin-14-yl]propan-1-ol]
1500	1330	850	1270	1560	3800	1830	14700	6430	36500	55400	29600	4420	1810	1300	4510	CC(C)Oc1nn(CCO)c2c1/C=C/c1n[nH]c3cnc(cc13)-c1cnn(C)c1O[C@H](C)CN(C(C)C)C2 [Ex. 3, 2-[(10R,17E)-8,10-dimethyl-12-(propan-2-yl)-16-[(propan-2-yl)oxy]-2,8,10,11,12,13-hexahydro-14H-5,3-(azenometheno)tripyrazolo[3,4-f:3′,4′-j:4″,3″-n][1,4]oxazacyclopentadecin-14-yl]ethan-1-ol]
320	1040	650	670	480	550	380	670	940	10700	780	990	410	550	60	550	CCOc1nn([C@@H](C)CO)c2c1/C=C/c1n[nH]c3c(C)nc(cc13)-c1c(C)nn(C)c1O[C@@H](C)CN(C)C2 [Ex. 54, (2S)-2-[(10S,17E)-16-ethoxy-6,8,10,12,20-pentamethyl-2,8,10,11,12,13-hexahydro-14H-5,3-(azenometheno)tripyrazolo[3,4-f:3′,4′-j:4″,3″-n][1,4]oxazacyclopentadecin-14-yl]propan-1-ol]
720	300	300	200	650	290	220	3630	930	13700	11400	1040	1120	740	170	900	CCOc1nn(CCO)c2c1/C=C/c1n[nH]c3c(C)nc(cc13)-c1cnn(C)c1O[C@@H](C)CN(C)C2 [Ex. 29, 2-[(10S,17E)-16-ethoxy-8,10,12,20-tetramethyl-2,8,10,11,12,13-hexahydro-14H-5,3-(azenometheno)tripyrazolo[3,4-f:3′,4′-j:4″,3″-30n][1,4]oxazacyclopentadecin-14-yl]ethan-1-ol]
